Experimental data taken from patent US20230285489A1, “METHODS, COMPOSITIONS, AND KITS ADDRESSING DEPRESSED MOOD” (Centre for Addiction and Mental Health, priority 2014, published 2023).

Test: Breast milk and plasma amino acid levels and tolerability after oral tyrosine or tryptophan
Conditions: for amount of free amino acid in breast milk: after oral supplementation
Method: Many amino acids and most medications freely cross into breast milk. […] The reason is that approximately 98% of tryptophan in breast milk is contained in proteins and peptides and that 99% of tyrosine in breast milk is contained in proteins and peptides. Different supplementation doses of oral tyrosine (0 g (none), 2, 5 or 10 grams) (n=6 each) or oral tryptophan (0 g (none), 2 or 4 grams) (n=6 each) were evaluated for resulting levels in breast milk.

With N[C@@H](Cc1c[nH]c2ccccc12)C(=O)O [tryptophan, L-tryptophan] the “amount of free amino acid in breast milk” value was “did increase”, the “total tryptophan levels in breast milk” value (oral tryptophan 2 or 4 grams, n=6 each) was “no change” and the adverse effect (tryptophan 4 gram level) was “nausea”. For the same compound, the “total tryptophan in breast milk” value (tryptophan 4 gram level) was “did not increase”, the “level in maternal plasma” value (tryptophan dose of 2 grams) was “significantly increased” and the tolerability (tryptophan dose of 2 grams) was “extremely well tolerated”. For the same compound, the “total tryptophan levels in breast milk” value (tryptophan dose of 2 grams) was “did not have any effects”.
In the case of N[C@@H](Cc1ccc(O)cc1)C(=O)O [tyrosine, L-tyrosine], the “amount of free amino acid in breast milk” value is reported as “did increase”, the “total tyrosine levels in breast milk” value (oral tyrosine 2, 5 or 10 grams, n=6 each) is reported as “no change” and the “level in maternal plasma” value (tyrosine dose of 10 grams) is reported as “significantly increased”. The tolerability (tyrosine dose of 10 grams) was “extremely well tolerated” and the “total tyrosine levels in breast milk” value (tyrosine dose of 10 grams) was “did not significantly impact”.
